Laboratory results from patent US9399649B2, “Compounds for treating spinal muscular atrophy” (PTC Therapeutics Inc., priority 2012, dated 2016).

Tested on: full length and Δ7 SMN2 mRNA
Assay: Endogenous SMN2 mRNA end-point semi-quantitative RT-PCR splicing assay in animal tissues
Type: in vivo
Settings: C/C-allele SMA mice, brain and muscle, oral BID for 10 days, FIG. 7
Method: The endpoint reverse transcription-PCR (RT-PCR) splicing assay is used to quantify the levels of the full length and Δ7 SMN2 mRNA in tissues from mice treated with test compound.
C/C-allele SMA mice are treated by oral gavage BID for 10 days with test compounds in 0.5% HPMC and 0.1% Tween-80. Tissue samples are collected and snap frozen for RNA purification.
Tissue samples (20-40 mg) are homogenized in QIAzol Lysis Reagent for 2 minutes at 20 Hz in the TissueLyser II using one stainless steel bead. After addition of chloroform, the homogenate is separated into aqueous and organic phases by centrifugation. RNA partitioned to the upper, aqueous phase is extracted and ethanol is added to provide appropriate binding conditions. The sample is then applied to the RNeasy spin column from the RNeasy Mini Kit, where total RNA binds to the membrane. The RNA is eluted in RNase-free water then stored at −20° C.
SMN2 spliced products are identified using the following amplification primers in Table 8. These primers hybridize to a nucleotide sequence in exon 6 (SMN Forward D, SEQ ID NO. 13) (nucleotide 22 to nucleotide 46) and exon 8 (SMN Reverse C, SEQ ID NO. 12), common to human SMN1 and SMN2 mRNA. […]

Cc1cn2cc(-c3cc4ccc(N5CCN(C)CC5)cc4c(=O)o3)nc2c(C)n1 [Cpd 65, 3-(6,8-dimethylimidazo[1,2-a]pyrazin-2-yl)-7-(4-methylpiperazin-1-yl)-1H-isochromen-1-one]
SMN2 FL mRNA in tissues (gel band): progressively more SMN2 FL mRNA
SMN2 Δ7 mRNA in tissues (gel band): less SMN2 Δ7 mRNA
